Experimental data: ChEMBL document CHEMBL2034954, “Synthesis and antimycobacterial activity of novel 1,3-dimethylisocyanurate derivatives” (Eur J Med Chem, 2012)
Converted amounts (≈) assume the structure as drawn. The source made the active and inactive calls. The calls are words filed in the database; no cut-off is given here.

Legend:
[1] = tested on: Mycobacterium tuberculosis; assay: Antitubercular activity against Mycobacterium tuberculosis H37Rv after […] by radiometric growth assay; type: functional
[2] = tested on: Mycobacterium tuberculosis; assay: Antitubercular activity against Mycobacterium tuberculosis H37Rv at 1 ug/mL by radiometric growth assay; type: functional, organism-based
[3] = tested on: Mycobacterium tuberculosis; assay: Antitubercular activity against Mycobacterium tuberculosis H37Rv at 10 ug/mL by radiometric growth assay; type: functional, organism-based
[4] = tested on: Mycobacterium tuberculosis; assay: Bacteriostatic activity against Mycobacterium tuberculosis H37Rv at 1 ug/mL assessed as growth index after 7 days by radiometric growth assay (reference value: 210 growth index); type: functional
[5] = tested on: Mycobacterium tuberculosis; assay: Bacteriostatic activity against Mycobacterium tuberculosis H37Rv at 0.5 ug/mL assessed as growth index after 7 days by radiometric growth assay (reference value: 210 growth index); type: functional
[6] = tested on: Mycobacterium tuberculosis; assay: Bacteriostatic activity against Mycobacterium tuberculosis H37Rv at 1 ug/mL assessed as growth index after 4 days by radiometric growth assay (reference value: 210 growth index); type: functional
[7] = tested on: Mycobacterium tuberculosis; assay: Bacteriostatic activity against Mycobacterium tuberculosis H37Rv at 1 ug/mL assessed as growth index after 10 days by radiometric growth assay (reference value: 210 growth index); type: functional
[8] = tested on: Mycobacterium tuberculosis; assay: Bacteriostatic activity against Mycobacterium tuberculosis H37Rv at 1 ug/mL assessed as growth index after 3 days by radiometric growth assay (reference value: 210 growth index); type: functional
[9] = tested on: Mycobacterium tuberculosis; assay: Bacteriostatic activity against Mycobacterium tuberculosis H37Rv at 0.5 ug/mL assessed as growth index after 3 days by radiometric growth assay (reference value: 210 growth index); type: functional
[10] = tested on: Mycobacterium tuberculosis; assay: Bacteriostatic activity against Mycobacterium tuberculosis H37Rv at 0.5 ug/mL assessed as growth index after 10 days by radiometric growth assay (reference value: 210 growth index); type: functional
[11] = tested on: Mycobacterium tuberculosis; assay: Bacteriostatic activity against Mycobacterium tuberculosis H37Rv at 1 ug/mL assessed as growth index after 5 days by radiometric growth assay (reference value: 210 growth index); type: functional
[12] = tested on: Mycobacterium tuberculosis; assay: Bacteriostatic activity against Mycobacterium tuberculosis H37Rv at 0.5 ug/mL assessed as growth index after 5 days by radiometric growth assay (reference value: 210 growth index); type: functional
[13] = tested on: Mycobacterium tuberculosis; assay: Bacteriostatic activity against Mycobacterium tuberculosis H37Rv at 0.5 ug/mL assessed as growth index after 4 days by radiometric growth assay (reference value: 210 growth index); type: functional
[14] = tested on: Mycobacterium tuberculosis; assay: Antitubercular activity against Mycobacterium tuberculosis H37Rv at 40 ug/mL by radiometric growth assay; type: functional, organism-based
[15] = tested on: Mycobacterium tuberculosis; assay: Antitubercular activity against Mycobacterium tuberculosis H37Rv at 80 ug/mL by radiometric growth assay; type: functional, organism-based
[16] = tested on: Mycobacterium tuberculosis; assay: Bacteriostatic activity against Mycobacterium tuberculosis H37Rv at 0.1 ug/mL assessed as growth index after 3 days by radiometric growth assay (reference value: 210 growth index); type: functional
[17] = tested on: Mycobacterium tuberculosis; assay: Bacteriostatic activity against Mycobacterium tuberculosis H37Rv at 0.1 ug/mL assessed as growth index after 7 days by radiometric growth assay (reference value: 210 growth index); type: functional
[18] = tested on: Mycobacterium tuberculosis; assay: Bacteriostatic activity against Mycobacterium tuberculosis H37Rv at 0.1 ug/mL assessed as growth index after 4 days by radiometric growth assay (reference value: 210 growth index); type: functional
[19] = tested on: Mycobacterium tuberculosis; assay: Bacteriostatic activity against Mycobacterium tuberculosis H37Rv at 0.1 ug/mL assessed as growth index after 5 days by radiometric growth assay (reference value: 210 growth index); type: functional
[20] = tested on: Mycobacterium tuberculosis; assay: Bacteriostatic activity against Mycobacterium tuberculosis H37Rv at 5 ug/mL assessed as growth index after 7 days by radiometric growth assay (reference value: 210 growth index); type: functional
[21] = tested on: Mycobacterium tuberculosis; assay: Bacteriostatic activity against Mycobacterium tuberculosis H37Rv at 5 ug/mL assessed as growth index after 4 days by radiometric growth assay (reference value: 210 growth index); type: functional
[22] = tested on: Mycobacterium tuberculosis; assay: Bacteriostatic activity against Mycobacterium tuberculosis H37Rv at 5 ug/mL assessed as growth index after 3 days by radiometric growth assay (reference value: 210 growth index); type: functional
[23] = tested on: Mycobacterium tuberculosis; assay: Bacteriostatic activity against Mycobacterium tuberculosis H37Rv at 5 ug/mL assessed as growth index after 5 days by radiometric growth assay (reference value: 210 growth index); type: functional
[24] = tested on: Mycobacterium tuberculosis; assay: Bacteriostatic activity against Mycobacterium tuberculosis H37Rv at 0.1 ug/mL assessed as growth index after 10 days by radiometric growth assay (reference value: 210 growth index); type: functional
[25] = tested on: Mycobacterium tuberculosis; assay: Bacteriostatic activity against Mycobacterium tuberculosis H37Rv at 25 ug/mL assessed as growth index after 3 days by radiometric growth assay (reference value: 210 growth index); type: functional
[26] = tested on: Mycobacterium tuberculosis; assay: Bacteriostatic activity against Mycobacterium tuberculosis H37Rv at 5 ug/mL assessed as growth index after 10 days by radiometric growth assay (reference value: 210 growth index); type: functional

NNC(=O)c1ccncc1 [ISONIAZID]
MIC [1]: 0.1 µg/mL (≈ 0.729 µM) | Activity [2]: Active | Activity [3]: Active

Cn1c(=O)n(C)c(=O)n(CCS(=O)(=O)CC(=O)NN)c1=O
Growth_index [4]: 33 | MIC [1]: 0.5 µg/mL (≈ 1.56 µM) | Growth_index [5]: 40 | Growth_index [6]: 24 | Growth_index [7]: 33 | Growth_index [8]: 18 | Growth_index [9]: 25 | Growth_index [10]: 53 | Growth_index [11]: 33 | Growth_index [12]: 40 | Growth_index [13]: 40

CO[C@H]1/C=C/O[C@@]2(C)Oc3c(C)c(O)c4c(O)c(c(/C=N/N5CCN(C)CC5)c(O)c4c3C2=O)NC(=O)/C(C)=C\C=C\[C@H](C)[C@H](O)[C@@H](C)[C@@H](O)[C@@H](C)[C@H](OC(C)=O)[C@@H]1C
Activity [14]: Active | Activity [15]: Active

Cn1c(=O)n(C)c(=O)n(CCCCCCS(=O)(=O)CC(=O)NN)c1=O
Growth_index [16]: 15 | MIC [1]: 0.1 µg/mL (≈ 0.265 µM) | Growth_index [17]: >90 | Growth_index [18]: 27 | Growth_index [19]: 31

Cn1c(=O)n(C)c(=O)n(CCCCCCCCCC[S+]([O-])CC(=O)NN)c1=O (stereo not given)
Growth_index [4]: 22 | MIC [1]: 0.5 µg/mL (≈ 1.2 µM) | Growth_index [6]: 20 | Growth_index [7]: 22 | Growth_index [8]: 0 | Growth_index [11]: 22

C=CCn1c(=O)n(CC=C)c(=O)n(CC(O)CS(=O)(=O)CC(=O)NN)c1=O (stereo not given)
MIC [1]: 0.1 µg/mL (≈ 0.248 µM)

Cn1c(=O)n(C)c(=O)n(CCCCS(=O)(=O)CC(N)=O)c1=O
Growth_index [4]: 54 | MIC [1]: 1 µg/mL (≈ 2.99 µM) | Growth_index [6]: 35 | Growth_index [7]: 54 | Growth_index [8]: 20 | Growth_index [11]: 54

Cn1c(=O)n(C)c(=O)n(CCCCC[S+]([O-])CC(N)=O)c1=O (stereo not given)
Growth_index [16]: 23 | Growth_index [4]: >90 | MIC [1]: 0.1 µg/mL (≈ 0.301 µM) | Growth_index [5]: 50 | Growth_index [6]: 30 | Growth_index [8]: 12 | Growth_index [9]: 26 | Growth_index [17]: >90 | Growth_index [18]: 27 | Growth_index [10]: 60 | Growth_index [11]: 30 | Growth_index [12]: 38 | Growth_index [19]: 30 | Growth_index [13]: 37

Cn1c(=O)n(C)c(=O)n(C[S+]([O-])CC(=O)NN)c1=O (stereo not given)
Growth_index [4]: >90 | Growth_index [20]: >90 | Growth_index [21]: 17 | MIC [1]: 1 µg/mL (≈ 3.43 µM) | Growth_index [22]: 10 | Growth_index [6]: 48 | Growth_index [8]: 15 | Growth_index [23]: 67 | Growth_index [11]: 78

Cn1c(=O)n(C)c(=O)n(CCC[S+]([O-])CC(=O)NN)c1=O (stereo not given)
Growth_index [4]: 5 | MIC [1]: 1 µg/mL (≈ 3.13 µM) | Growth_index [6]: 5 | Growth_index [7]: 55 | Growth_index [8]: 5 | Growth_index [11]: 5

Cn1c(=O)n(C)c(=O)n(CS(=O)(=O)CC(=O)NN)c1=O
Growth_index [16]: 35 | Growth_index [4]: 20 | MIC [1]: 0.1 µg/mL (≈ 0.325 µM) | Growth_index [5]: 52 | Growth_index [6]: 20 | Growth_index [7]: 20 | Growth_index [8]: 20 | Growth_index [9]: 25 | Growth_index [17]: 47 | Growth_index [18]: 43 | Growth_index [10]: 52 | Growth_index [12]: 52 | Growth_index [19]: 47 | Growth_index [13]: 41 | Growth_index [24]: 47

Cn1c(=O)n(C)c(=O)n(CS(=O)(=O)CC(N)=O)c1=O
MIC [1]: 1 µg/mL (≈ 3.42 µM)

Cn1c(=O)n(C)c(=O)n(CCCS(=O)(=O)CC(=O)NN)c1=O
Growth_index [4]: 55 | MIC [1]: 1 µg/mL (≈ 2.98 µM) | Growth_index [6]: 18 | Growth_index [7]: 55 | Growth_index [8]: 5 | Growth_index [9]: 15 | Growth_index [11]: 55 | Growth_index [12]: >90 | Growth_index [13]: 30

Cn1c(=O)n(C)c(=O)n(CC(O)CS(=O)(=O)CC(=O)NN)c1=O (stereo not given)
Growth_index [4]: 35 | MIC [1]: 0.1 µg/mL (≈ 0.285 µM) | Growth_index [6]: 25 | Growth_index [7]: 35 | Growth_index [8]: 1 | Growth_index [11]: 30

Cn1c(=O)n(C)c(=O)n(CCCCCS(=O)(=O)CC(=O)NN)c1=O
Growth_index [4]: 50 | MIC [1]: 0.5 µg/mL (≈ 1.38 µM) | Growth_index [5]: >90 | Growth_index [6]: 50 | Growth_index [7]: 50 | Growth_index [8]: 14 | Growth_index [9]: 12 | Growth_index [11]: 50 | Growth_index [12]: 50 | Growth_index [13]: 33

Cn1c(=O)n(C)c(=O)n(CCS(=O)(=O)CC(N)=O)c1=O
MIC [1]: 25 µg/mL (≈ 81.6 µM) | Growth_index [25]: >90

Cn1c(=O)n(C)c(=O)n(CCCCS(=O)(=O)CC(=O)NN)c1=O
Growth_index [4]: 73 | MIC [1]: 1 µg/mL (≈ 2.86 µM) | Growth_index [6]: 34 | Growth_index [7]: >90 | Growth_index [8]: 18 | Growth_index [11]: 73

Cn1c(=O)n(C)c(=O)n(CCCS(=O)(=O)CC(N)=O)c1=O
Growth_index [4]: 39 | MIC [1]: 1 µg/mL (≈ 3.12 µM) | Growth_index [6]: 29 | Growth_index [7]: 39 | Growth_index [8]: 20 | Growth_index [11]: 39

Cn1c(=O)n(C)c(=O)n(CC[S+]([O-])CC(=O)NN)c1=O (stereo not given)
Growth_index [4]: 50 | MIC [1]: 0.5 µg/mL (≈ 1.64 µM) | Growth_index [6]: 22 | Growth_index [7]: 50 | Growth_index [8]: 10 | Growth_index [9]: 30 | Growth_index [11]: 40 | Growth_index [13]: >90

CC1COc2c(N3CCN(C)CC3)c(F)cc3c(=O)c(C(=O)O)cn1c23 (stereo not given)
Activity [3]: Active

Cn1c(=O)n(C)c(=O)n(C[S+]([O-])CC(N)=O)c1=O (stereo not given)
Growth_index [16]: 30 | MIC [1]: 0.1 µg/mL (≈ 0.362 µM) | Growth_index [5]: 50 | Growth_index [9]: 32 | Growth_index [17]: >90 | Growth_index [18]: 30 | Growth_index [10]: 50 | Growth_index [12]: 50 | Growth_index [19]: 36 | Growth_index [13]: 50

Cn1c(=O)n(C)c(=O)n(CCCCCCS(=O)(=O)CC(N)=O)c1=O
Growth_index [4]: >90 | MIC [1]: 1 µg/mL (≈ 2.76 µM) | Growth_index [6]: 23 | Growth_index [8]: 5 | Growth_index [11]: 53

Cn1c(=O)n(C)c(=O)n(CCC[S+]([O-])CC(N)=O)c1=O (stereo not given)
MIC [1]: 1 µg/mL (≈ 3.29 µM) | Growth_index [6]: 41 | Growth_index [8]: 7 | Growth_index [11]: >90

Cn1c(=O)n(C)c(=O)n(CC[S+]([O-])CC(N)=O)c1=O (stereo not given)
MIC [1]: 10 µg/mL (≈ 34.4 µM) | Growth_index [25]: >90

Cn1c(=O)n(C)c(=O)n(CCCCCS(=O)(=O)CC(N)=O)c1=O
Growth_index [4]: 23 | MIC [1]: 1 µg/mL (≈ 2.87 µM) | Growth_index [6]: 20 | Growth_index [7]: 23 | Growth_index [8]: 15 | Growth_index [11]: 23

Cn1c(=O)n(C)c(=O)n(CCCCCC[S+]([O-])CC(N)=O)c1=O (stereo not given)
Growth_index [4]: 54 | Growth_index [20]: 66 | Growth_index [21]: 31 | MIC [1]: 1 µg/mL (≈ 2.89 µM) | Growth_index [22]: 15 | Growth_index [6]: 45 | Growth_index [7]: >90 | Growth_index [8]: 25 | Growth_index [26]: 66 | Growth_index [23]: 42 | Growth_index [11]: 47

Cn1c(=O)n(C)c(=O)n(CCCCCC[S+]([O-])CC(=O)NN)c1=O (stereo not given)
Growth_index [4]: >90 | MIC [1]: 0.5 µg/mL (≈ 1.38 µM) | Growth_index [6]: 15 | Growth_index [8]: 10 | Growth_index [11]: 15
